According to patent publication US9511074B2, “Methods of treating disorders associated with protein polymerization” (UNIVERSITY OF PITTSBURGH—OF THE COMMONWEALTH SYSTEM OF …, priority 2009, dated 2016):

Experiments:
[1] = tested on: ATZ in the HTO/Z cell line; assay: Pulse labeling and pulse-chase labeling of ATZ in the HTO/Z line; format: cell-based, human
Procedure: Radioimmunoprecipitation, SDS-PAGE and Immunoblot Analysis Biosynthetic labeling, pulse-chase labeling, immunoprecipitation and SDS-PAGE/fluorography for AT followed previously published protocols (1). […] For the pulse labeling experiments, HTO/Z cells were incubated for 48 hours in the absence or presence of CBZ in several different concentrations and then subjected to labeling for 30 mins. The cell lysates were then examined by immunoprecipitation and the immunoprecipitates analyzed by SDS-PAGE/fluorography. For the pulse-chase experiments, HTO/Z cells were incubated for 48 hours in the absence of presence of CBZ 30 μM and then pulse labeled for 30 mins. The cells were then washed and incubated in growth medium without tracer for several different time intervals to constitute the chase. CBZ 30 μM was included during the pulse and chase periods. The extracellular fluid and cell lysate samples were subjected to immunoprecipitation and the immunoprecipitates analyzed by SDS-PAGE/fluorography. All fluorograms were subjected to densitometry. The relative densitometric value of T0 is set at 100% and the remainder of the data set expressed as % of this control. The data are shown as mean+/−SE and the mean value at each time point is shown at the bottom of the figure.

[2] = tested on: AT Saar in the HTO/Saar cell line; assay: Levels of AT Saar variant in the HTO/Saar cell line; format: cell-based, human; settings: FIG. 3D
Excerpt: (§1) Cell Lines The human epidermal HeLa cell line with doxycycline-regulated expression of ATZ (HTO/Z) has been described previously (1). HTO/M and HTO/Saar are HeLa cell lines with doxycycline-regulated expression of wild type AT and the AT Saar variant, respectively (1). A murine embryonic fibroblast cell line (MEF) with targeted disruption of Atg5 (2) was engineered for stable expression of ATZ using the previously described pRc/RSV-ATZ expression plasmid (3). A wild type MEF cell line was also engineered for stable expression of ATZ in the same way to serve as control. For experiments with CBZ, the inducible cell lines were cultured in the absence of doxycycline for at least 4 weeks for maximal expression of AT. The cells were then subcultured into separate monolayers in fresh complete growth medium and incubated for 48 hours in the absence or presence of CBZ or rapamycin (RAP). CBZ or RAP were added to the growth medium. The duration of incubation with CBZ was determined to be optimal at 48 hours based on experiments in which the duration was varied from 12 to 72 hours. Doses of CBZ were based on previous studies of its effects in cell lines (5,6). […]
(§2) For immunoblot analysis to detect AT, GAPDH or LC3, cells were lysed in 50 mM Tris-HCl, 150 mM NaCl, 1% NP-40, pH 8.0. Protein levels were quantified using the BCA protein assay (Pierce Biotechnology, Rockford, Ill.). […]

[3] = tested on: wild type AT in the HTO/M cell line; assay: Steady state levels of wild type AT in the HTO/M cell line (immunoblot); format: cell-based, human; settings: FIG. 1D
Excerpt: as §1, §2

[4] = tested on: ATZ in the HTO/Z cell line; assay: Steady state levels of ATZ in the HTO/Z cell line (immunoblot of insoluble and soluble fractions); format: cell-based, human; settings: HTO/Z cells
Excerpt: Cell Lines The human epidermal HeLa cell line with doxycycline-regulated expression of ATZ (HTO/Z) has been described previously (1). HTO/M and HTO/Saar are HeLa cell lines with doxycycline-regulated expression of wild type AT and the AT Saar variant, respectively (1). A murine embryonic fibroblast cell line (MEF) with targeted disruption of Atg5 (2) was engineered for stable expression of ATZ using the previously described pRc/RSV-ATZ expression plasmid (3). A wild type MEF cell line was also engineered for stable expression of ATZ in the same way to serve as control. For experiments with CBZ, the inducible cell lines were cultured in the absence of doxycycline for at least 4 weeks for maximal expression of AT. The cells were then subcultured into separate monolayers in fresh complete growth medium and incubated for 48 hours in the absence or presence of CBZ or rapamycin (RAP). CBZ or RAP were added to the growth medium. The duration of incubation with CBZ was determined to be optimal at 48 hours based on experiments in which the duration was varied from 12 to 72 hours. Doses of CBZ were based on previous studies of its effects in cell lines (5,6). Doses of RAP were based on previous positive effects on autophagic disposal of polyglutamine-repeat proteins (7). After the incubation cells were homogenized and cell homogenates separated into insoluble and soluble fractions according to our previously established technique (8). Samples of 20 μgs each were subjected to immunoblot analysis for AT, BiP and GAPDH.
(§3) For immunoblot analysis to detect AT, GAPDH or LC3, cells were lysed in 50 mM Tris-HCl, 150 mM NaCl, 1% NP-40, pH 8.0. Protein levels were quantified using the BCA protein assay (Pierce Biotechnology, Rockford, Ill.). 10-50 μg samples were loaded onto 7.5% precast gels. PVDF membranes were blocked in TBS, 0.5% Tween 20 (TBST), 5% milk and then incubated with primary antibody in 5% milk TBST solution. Horseradish peroxidase anti-goat Ig or anti-mouse Ig (Jackson Labs, Bar Harbor, Me.) were used as secondary antibodies in TBST. Blots were visualized with Super Signal West Dura or West Femto from Pierce.

[5] = tested on: ATZ in wild-type mouse embryonic fibroblast (MEF) cell line; assay: ATZ levels in wild-type (Atg5+/+) MEF cell line; format: cell-based, murine
Excerpt: as §1, §2

[6] = tested on: ATZ in Atg5 deficient cell line; assay: ATZ levels in autophagy-deficient (Atg5-/-) MEF cell line; format: cell-based, murine; settings: Atg5-deficient cells
Excerpt: as §1, §2

[7] = tested on: LC3; assay: LC3 conversion in the HTO/Z cell line by immunoblot; format: cell-based, human; settings: with or without lysosomal enzyme inhibitors
Procedure: For experiments in which proteasomal inhibitors were used, MG132 was used at 30 μM and lactacystin at 10 μM for the last 6 hours of the incubation with CBZ or control. Cells that were incubated with MG132 or lactacystin alone served as control to validate that the proteasome was inhibited. For investigation of LC3 conversion, lysosomal inhibitors (E64D and pepstatin A at 20 μg/ml) were added to the medium for the last 4 hours of the incubation with CBZ or control. […] If the number of separate experiments done in the cell line models is not specifically indicated in the text or figure legend, at least 3 separate experiments were done in each case.
as §3

[8] = 48 hours incubation, immunoblot

Q: How did the “total protein synthesis or secretion (radioactivity in TCA precipitates)” value ([1]; HTO/Z cells) turn out when `NC(=O)N1c2ccccc2C=Cc2ccccc21` [CBZ, 5H-dibenz [b,f]azepine-5-carboxamide] was run?
A: did not show any effects

Q: And the “synthesis of ATZ” value ([1]; pulse labeling 30 mins after 48 hours CBZ)?
A: did not affect

Q: And the “secretion of ATZ” value ([1]; pulse-chase, CBZ 30 μM)?
A: could not be attributed to enhanced secretion

Q: What about the “half-time of disappearance of ATZ from the intracellular compartment” value ([1]; pulse-chase, CBZ 30 μM, 200 min in untreated cells) of the same molecule?
A: 130 min

Q: What about the “levels of AT Saar (soluble fraction)” value [2] of the same molecule?
A: degraded by CBZ in a manner almost identical to that of ATZ

Q: And the “wild-type AT levels” value [3]?
A: did not affect

Q: What about the “minimal effective dose on ATZ levels” value [4] of the same molecule?
A: 3 µM

Q: And the “steady-state levels of ATZ, insoluble fraction” value [4, 8]?
A: marked decrease

Q: What about the “steady-state levels of ATZ, soluble fraction” value [4, 8] of the same molecule?
A: marked decrease

Q: What about the “levels of insoluble ATZ” value ([5]; wild-type MEF cell line) of the same molecule?
A: decrease

Q: And the “levels of soluble ATZ” value ([5]; wild-type MEF cells)?
A: decrease

Q: What about the “levels of soluble ATZ” value [6] of the same molecule?
A: decrease

Q: And the “LC3-II to LC3-I ratio” value [7]?
A: increased in a dose-dependent manner
